This note sets out measurements from publication PMC8791944, “GLUT3 inhibitor discovery through in silico ligand screening and in vivo validation in eukaryotic expression systems” (Scientific Reports, 2022).

Like-named read-outs stand apart in the source and are kept apart here.

The target in this assay is T1, GLUT2∆loopS_Q455R (Homo sapiens, UniProt P11168, Q455R, form not given).
T1 sequence (P11168 1-524 Q455R): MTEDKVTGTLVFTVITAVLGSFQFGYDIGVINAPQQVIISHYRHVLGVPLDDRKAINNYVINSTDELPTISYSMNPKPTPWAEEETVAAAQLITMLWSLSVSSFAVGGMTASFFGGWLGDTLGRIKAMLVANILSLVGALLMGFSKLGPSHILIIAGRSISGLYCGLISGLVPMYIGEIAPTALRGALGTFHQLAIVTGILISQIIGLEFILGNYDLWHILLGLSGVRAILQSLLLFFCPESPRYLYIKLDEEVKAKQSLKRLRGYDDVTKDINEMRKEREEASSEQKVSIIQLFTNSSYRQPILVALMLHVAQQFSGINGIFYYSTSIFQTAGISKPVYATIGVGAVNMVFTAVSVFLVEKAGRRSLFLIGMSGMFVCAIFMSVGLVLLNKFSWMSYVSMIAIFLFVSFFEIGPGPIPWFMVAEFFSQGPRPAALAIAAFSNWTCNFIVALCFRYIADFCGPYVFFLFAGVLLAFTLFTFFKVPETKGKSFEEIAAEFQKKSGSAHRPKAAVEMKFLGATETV
Put plainly: Glucose transport assay, GLUT2∆loopS_Q455R expressed in hxt^0 yeast cells EBY.S7. The class given is cell-based. The text has this:
The most studied GLUTs are Class 1 GLUTs (GLUT1-4) and a Class 2 GLUT, GLUT5 (a fructose-only transporter). GLUT3 sequence homology and identity is 79% and 64%, 71% and 52%, 74% and 57%, and 60% and 38% with GLUT1, GLUT2, GLUT4, and GLUT5, respectively. The hxt^0 yeast cell systems expressing functional GLUT1-4[65],[69] and GLUT5[66] allow us to determine the in vivo transport activity (substrate uptake by a GLUT into whole cells) for individual GLUTs and establish GLUT3 inhibitor selectivity for these transporters. The transport assay was performed as described for GLUT3, but at the substrate concentrations that correspond to the KM for each GLUT (i.e., 5 mM glucose for GLUT1 and GLUT4[65], 15 mM glucose for GLUT2∆loopS_Q455R[63], and 10 mM fructose for GLUT5S72Y[66]).
The transport activity was assayed as the substrate uptake in hexose transporter-deficient yeast cells expressing functional GLUT1[65], GLUT2[69], GLUT4[65], or GLUT5[66]. Substrate final concentration in the assay matched the corresponding substrate KM and was 5 mM glucose for GLUT1 and GLUT4, 15 mM glucose for GLUT2∆loopS_Q455R, and 10 mM fructose for GLUT5S72Y. Transport assay was initiated by the addition of C^14-labeled substrate and stopped after 10 min (see “Materials and methods” for details). […] Standard deviations for experimental points come from at least three independent measurements.
The plasmids containing functional constructs of GLUT1-5 were transformed in the corresponding hxt^0 strains[65],[66],[73] (EBY.VW4000 for GLUT5S72Y, EBY.S7 for GLUT1, GLUT2∆loopS_Q455R, GLUT3 and GLUT3S66Y, and SDY.022 for GLUT4) and grown on 2% (w/v) agar plates of the respective media supplemented with 1% (w/v) maltose. An initial culture of ~ 10 ml was started with a few colonies and grown for 2–3 days if the media was SC-uracil with 1% (w/v) maltose (GLUT1, GLUT3, GLUT4) or 1–2 days if the media was YEP with 1% (w/v) maltose and 100 µg/ml geneticin G418 (GLUT2∆loopS_Q455R and GLUT5S72Y). Cells were washed once in the corresponding media in which maltose was substituted with 0.1–2% hexose substrate for the expressing GLUT (i.e., SC-uracil, 2% (w/v) glucose for GLUT1; SC-uracil, 0.2% (w/v/) glucose for GLUT3 and GLUT4; YEP, 0.2% (w/v) glucose, 100 µg/ml geneticin G418 for GLUT2∆loopS_Q455R, and YEP, 2% (w/v) fructose for GLUT5 S72Y). Then, cells were transferred in the same media so that OD600nm ~ 0.5 and grown further for 1–2 days.
For transport activity assay, cells in the hexose media were centrifuged (1000×g, 5 min, room temperature), washed once with PBS buffer (10 mM Na2HPO4, 1.8 mM KH2PO4, 2.7 mM KCl, 137 mM NaCl, pH 7.4), and resuspended in PBS buffer at an OD600nm ~ 10; each assay contained 100 µl of this cell solution. Transport activity assay was started by adding C^14-hexose at a substrate concentration corresponding to the respective KM (5 mM glucose for GLUT1 or GLUT4, 3 mM glucose for GLUT3 or 1.5 mM glucose for GLUT3S66Y, 15 mM glucose for GLUT2∆loopS_Q455R, and 10 mM fructose for GLUT5S72Y); for determining the glucose KM in GLUT3 and GLUT3S66Y, substrate concentrations were varied accordingly. […] The filtration membranes were transferred into scintillation vials with 10 ml of Scintillation Solution (BioSafeII; Research Products International, Mount Prospect, IL, USA), and vortexed briefly. The radioactivity was determined with a scintillation counter (Tri-carb 2900TR, Perkin Elmer, USA).

Setting [1] is: GLUT2∆loopS_Q455R in hxt^0 yeast cells, 15 mM glucose; read-out: IC50 for GLUT2 transport inhibition.

As usually defined, the IC50 is the concentration at which inhibition is half-maximal. Regarding `COc1ccccc1-n1c(/C=C/c2ccc(O)cc2)nc2ccc(Br)cc2c1=O` [G3iB, 6-bromo-2-[(E)-2-(4-hydroxyphenyl)ethenyl]-3-(2-methoxyphenyl)quinazolin-4(3H)-one], for the setting “read-out: IC50 for GLUT2 transport inhibition; GLUT2∆loopS_Q455R in hxt^0 yeast cells, 15 mM glucose”, the IC50 was > 50 µM.
In the case of `O=C(Nc1cccc(Cl)c1)c1cccc(NC(=O)c2cccc([N+](=O)[O-])c2)c1` [G3iE, N-{3-[(3-chloroanilino)carbonyl]phenyl}-3-nitrobenzamide], the IC50 under setting [1] was > 50 µM.
Still for that read-out and setting: in the case of `Cc1ccccc1CN(Cc1nnc(C(C)(C)C)o1)c1ccc2nc(O)[nH]c2c1` [G3iF] it was 24.7 ± 8.4 µM.
On the same count and under the same terms, then `Cc1cccnc1OC1CCN(c2cc(N3CCCC3CO)ncn2)CC1` (stereo not shown) [G3iC], with > 50 µM; and `Cc1cc(NC(=O)CCC2Cc3ccccc3NC2=O)nc(-c2ccccc2)n1` (stereo not shown) [G3iD], with 40 ± 3.7 µM.
As for `CC(=O)Nc1ccc(S(=O)(=O)Nc2ccc(Nc3cc(N(C)C)nc(C)n3)cc2)cc1` [G3iA, N-(4-{[(4-{[6-(dimethylamino)-2-methylpyrimidin-4-yl]amino}phenyl)amino]sulfonyl}phenyl)acetamide], the IC50 under setting [1] worked out at 29.4 ± 6.3 µM. Further, where the note is “IC50 GLUT2 versus IC50 GLUT3”, the “Potency for GLUT2 relative to GLUT3 (IC50 ratio, weaker for GLUT2)” value was “~ fourfold”.
